≈ marks a conversion by molar mass, not a printed value.

A short description of data set [1]: Permeability in human Caco2 cells. The note with it: caco-2.
Data set [2] in a line: Aqueous equilibrium solubility of compound in pH 1 solution at 20 degC. The note with it: aqueous pH 1 solution.
Data set [3] in a line: Cytotoxicity against human HepG2 cells assessed as reduction in cell viability after 40 hrs by Celltiter-Glo assay.
Data set [4] concerns the target T1, Cytochrome P450 3A4 (Homo sapiens, UniProt P08684). Kind of data set: Inhibition of CYP3A4 in human liver microsomes assessed as 6-beta-hydroxytestosterone metabolite formation using testosterone as substrate incubated for 30 mins by HPLC-MS method.
The subject of data set [5] is Mycobacterium tuberculosis. The experiment in a line: Ratio of MIC80 for Mycobacterium tuberculosis H37Rv in presence of 25% human serum to MIC80 for Mycobacterium tuberculosis H37Rv. It is filed as functional.
Data set [6] has as its system Mycobacterium tuberculosis. The experiment in a line: Antimycobacterial activity against Mycobacterium tuberculosis H37Rv incubated for 5 days in presence of 25% human serum by Bactiter-Glo assay. In kind it is functional. The note with it: 120 h.
In data set [7] the test system is Mycobacterium tuberculosis. The experiment in a line: Antimycobacterial activity against Mycobacterium tuberculosis H37Rv incubated for 5 days by Bactiter-Glo assay. In kind it is functional. As to conditions: 120 h.
Data set [8] concerns the target T1, Cytochrome P450 3A4. Kind of data set: Inhibition of CYP3A4 in human liver microsomes assessed as 1'-hydroxymidazolam metabolite formation using midazolam as substrate incubated for 10 mins by HPLC-MS method.
The nature of data set [9]: Aqueous equilibrium solubility of compound in pH 7.4 solution at 20 degC. As to conditions: aqueous pH 7.4 solution.
Data set [10] is described as follows: Lipophilicity, log P of compound. The note with it: octanol/water.

T1 sequence (P08684 whole entry): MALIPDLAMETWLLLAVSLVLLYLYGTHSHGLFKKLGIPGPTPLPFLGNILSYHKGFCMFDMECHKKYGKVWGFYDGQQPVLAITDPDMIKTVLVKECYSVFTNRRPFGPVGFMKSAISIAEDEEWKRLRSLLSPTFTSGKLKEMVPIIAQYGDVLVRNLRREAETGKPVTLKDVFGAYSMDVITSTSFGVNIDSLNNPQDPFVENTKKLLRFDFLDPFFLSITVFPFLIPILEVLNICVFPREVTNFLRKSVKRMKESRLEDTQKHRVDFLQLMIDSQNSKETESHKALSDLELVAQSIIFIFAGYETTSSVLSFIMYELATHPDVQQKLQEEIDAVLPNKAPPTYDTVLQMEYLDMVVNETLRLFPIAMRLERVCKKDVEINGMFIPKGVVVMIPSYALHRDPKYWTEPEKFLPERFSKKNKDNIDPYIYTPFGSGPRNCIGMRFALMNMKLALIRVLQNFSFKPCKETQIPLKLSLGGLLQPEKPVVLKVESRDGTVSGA

Take `Cn1c(NCCc2ccc(N3CCOCC3)cc2)nc2cc(Cl)ccc2c1=O`: in [1], the permeability result is given as “Permeable”. The solubility (thermodynamic) in [2] came to 1090 µg/mL (≈ 2740 µM); in [9], 8 µg/mL (≈ 20.1 µM). In addition, the IC50 at 40 h in [3] (HepG2 cells) is greater than 30 µM. Also, the IC50 at Cytochrome P450 3A4 [4] and at Cytochrome P450 3A4 [8] was 11 µM each time. Also, in [5], the Ratio is on record as 8. For the same molecule, the MIC80 in data set [6] was greater than 10 µM; in data set [7] it was 0.33 µM (≈ 0.132 µg/mL).

Regarding `COc1ccc(-c2ccc(CCNc3nc4cc(Cl)ccc4c(=O)n3C)nc2)cn1`, the IC50 at 40 h in [3] (HepG2 cells) was found to be 24.1 µM. Besides, the Ratio in data set [5] came out at 8. The MIC80 in data set [6] is greater than 15 µM; in [7], 0.31 µM (≈ 0.131 µg/mL).

On to `COc1ccc(CCNc2nc3ccc(Cl)cc3c(=O)n2C)cc1`, for which, in [3] (HepG2 cells), the IC50 at 40 h stood at 26.1 µM. Besides, in data set [5], the Ratio was greater than 10. The same molecule gave an MIC80 in data set [7] of 0.9 µM (≈ 0.309 µg/mL).

In data set [10], `COc1ccc(-c2ccc(CCNc3nc4cc(Cl)ccc4c(=O)n3C)nc2)cc1` displayed a logP of 4.03. In addition, the IC50 at 40 h in [3] (HepG2 cells) is 14.7 µM. Besides, the Ratio in data set [5] stood at 8. In addition, the MIC80 in [7] came to 0.32 µM (≈ 0.135 µg/mL).

In data set [10], `COc1ccc(-c2ccc(CCNc3nc4cc(Cl)ccc4c(=O)n3C)cc2)cn1` returned a logP of 4.68. The IC50 at 40 h in data set [3] (HepG2 cells) is 11.3 µM. Moreover, the Ratio in [5] came to 8. For the same molecule, the MIC80 in [7] worked out at 0.09 µM (≈ 0.0379 µg/mL).

In data set [10], `COc1ccc(-c2ccc(CCNc3nc4cc(Cl)ccc4c(=O)n3C)cc2)nc1` showed a logP of 4.67. In addition, the IC50 at 40 h in data set [3] (HepG2 cells) came out at 11.9 µM. Further, the Ratio in data set [5] stood at 8. In addition, the MIC80 in data set [7] came out at 0.06 µM (≈ 0.0253 µg/mL).

As for `CCn1c(NCCc2ccc(OC)cc2)nc2cc(Cl)ccc2c1=O`, in data set [3] (HepG2 cells), the IC50 at 40 h amounted to 21 µM. Further, in data set [5], the Ratio was greater than 10. This molecule also had an MIC80 in data set [7] of 1.1 µM (≈ 0.394 µg/mL).

For the molecule `Cn1c(NCCc2ccc(-c3ccccn3)cc2)nc2cc(Cl)ccc2c1=O`, the IC50 at 40 h in data set [3] (hepg2) amounted to 16.5 µM. Also, the MIC80 is 25.2 µM in data set [6] and 0.027 µM (≈ 0.0106 µg/mL) in data set [7].

As for `COc1ccc(CCN(C)c2nc3cc(Cl)ccc3c(=O)n2C)cc1`, the IC50 at 40 h in [3] (HepG2 cells) is greater than 30 µM. Moreover, the Ratio in data set [5] is recorded as greater than 10. For the same molecule, the MIC80 in data set [7] was 11.2 µM (≈ 4.01 µg/mL).

On to `Cn1c(NCCc2ccc(-c3ccccc3)cn2)nc2cc(Cl)ccc2c1=O`, for which, in data set [3] (HepG2 cells), the IC50 at 40 h turned out to be 18.3 µM. Moreover, the Ratio in data set [5] was 8. The MIC80 in data set [7] amounted to 0.004 µM (≈ 0.00156 µg/mL).

In the case of `Cn1c(NCCc2ccc(-n3cccn3)cc2)nc2cc(Cl)ccc2c1=O`, the IC50 at 40 h in data set [3] (hepg2) stood at 17.3 µM. For the same molecule, the MIC80 in data set [6] was determined as 8.56 µM; in data set [7] it was 0.02 µM (≈ 0.0076 µg/mL).

Take `COc1ccc(CCNc2nc3cc(F)ccc3c(=O)n2C)cc1`: the IC50 at 40 h in data set [3] (HepG2 cells) was greater than 30 µM. In data set [5], the Ratio is reported as greater than 10. The MIC80 in [7] is 0.2 µM (≈ 0.0655 µg/mL).

`COc1ccc(-c2ccc(CCNc3nc4cc(Cl)ccc4c(=O)n3C)nn2)cc1`: in data set [5], the Ratio worked out at 8. Besides, the MIC80 in [7] was 0.74 µM (≈ 0.312 µg/mL).

In the case of `COc1ccc(CCNc2nc3cc(C#N)ccc3c(=O)n2C)cc1`, the IC50 at 40 h in [3] (HepG2 cells) was found to be 12.7 µM. Besides, the Ratio in data set [5] is on record as greater than 10. In addition, in data set [7], the MIC80 is 0.48 µM (≈ 0.161 µg/mL).

For `Cn1c(NCCc2ccc(Oc3ccccn3)cc2)nc2cc(Cl)ccc2c1=O`, the IC50 at 40 h in data set [3] (HepG2 cells) came to 12.1 µM. Also, in [5], the Ratio is reported as 8. Besides, the MIC80 turned out to be 7.37 µM in [6] and 0.06 µM (≈ 0.0244 µg/mL) in data set [7].

For the molecule `Cn1c(NCCc2ccc(Oc3ccc(Cl)cn3)cc2)nc2cc(Cl)ccc2c1=O`, the IC50 at 40 h in data set [3] (hepg2) amounted to 13 µM. Further, the MIC80 in data set [6] is 1.76 µM; in [7], 0.02 µM (≈ 0.00883 µg/mL).

`COc1ccc(CCNc2nc3cc(N)ccc3c(=O)n2C)cc1` displayed a logP in data set [10] of 1.94. Also, the Ratio in data set [5] amounted to 5. Moreover, the MIC80 was 0.198 µM in data set [6] and 0.04 µM (≈ 0.013 µg/mL) in [7].

For the molecule `COc1ccc(CCNc2nc3cc(N(C)C)ccc3c(=O)n2C)cc1`, the logP in [10] was 1.94. Besides, the Ratio in data set [5] is reported as greater than 10. Besides, the MIC80 in data set [7] came to 0.11 µM (≈ 0.0388 µg/mL).

For `COc1ccc(CCNc2nc3cc(Cl)c(F)cc3c(=O)n2C)cc1`, in data set [3] (HepG2 cells), the IC50 at 40 h is greater than 30 µM. Also, in data set [5], the Ratio is given as greater than 10. In data set [7], this molecule returned an MIC80 of 0.03 µM (≈ 0.0109 µg/mL).

As for `COc1ccc(CCNc2nc3cc(C)ccc3c(=O)n2C)cc1`, the permeability result in data set [1] is “Permeable”. Besides, the thermodynamic solubility in data set [2] was 221 µg/mL (≈ 683 µM); in [9], less than 1 µg/mL. Moreover, the IC50 at 40 h in data set [3] (HepG2 cells) was greater than 30 µM. The IC50 on Cytochrome P450 3A4 [4] was 4.8 µM; on Cytochrome P450 3A4 [8] it was less than 1 µM. In addition, in data set [5], the Ratio is given as greater than 10. The molecule also returned an MIC80 in data set [7] of 0.01 µM (≈ 0.00323 µg/mL).

As to `Cn1c(NCCc2ccc(-c3ccccc3)nn2)nc2cc(Cl)ccc2c1=O`, the IC50 at 40 h in [3] (HepG2 cells) turned out to be 15.1 µM. The Ratio in [5] stood at 8. The molecule also had an MIC80 in data set [7] of 1.12 µM (≈ 0.439 µg/mL).

For the molecule `COc1ccc(CCNc2nc3cc(OC)ccc3c(=O)n2C)cc1`, the permeability entry in data set [1] is recorded as “Permeable”. Also, the thermodynamic solubility in data set [2] was determined as 734 µg/mL (≈ 2160 µM); in data set [9] it was 4 µg/mL (≈ 11.8 µM). For the same molecule, in data set [10], the logP is 3.1. In addition, the IC50 at 40 h in data set [3] (HepG2 cells) is greater than 30 µM. Further, the IC50 on Cytochrome P450 3A4 [4] is 10 µM; at Cytochrome P450 3A4 [8] it was less than 1 µM. Besides, the Ratio in data set [5] is reported as greater than 10. The molecule further displayed an MIC80 in [7] of 0.026 µM (≈ 0.00882 µg/mL).

On to `COc1ccc(CCNc2nc3cc(Cl)ccc3c(=O)[nH]2)cc1`, for which the Ratio in data set [5] is reported as greater than 10. Also, in [7], the MIC80 came out at 6.3 µM (≈ 2.08 µg/mL).

`COc1ccc(CCCNc2nc3cc(Cl)ccc3c(=O)n2C)cc1`: the IC50 at 40 h in data set [3] (HepG2 cells) came to 16.8 µM. Moreover, in data set [5], the Ratio is greater than 10. This molecule showed an MIC80 in data set [7] of 5.8 µM (≈ 2.08 µg/mL).

Take `Cn1c(NCCc2ccc(-n3cc(Cl)cn3)cc2)nc2cc(Cl)ccc2c1=O`: in [1], the permeability result is listed as “Permeable”. Besides, the thermodynamic solubility in data set [2] and in data set [9] was less than 1 µg/mL throughout. In addition, the logP in data set [10] amounted to 4.67. The IC50 at 40 h in data set [3] (HepG2 cells) was found to be 21.6 µM. In addition, the Ratio in data set [5] worked out at 8. Further, the MIC80 in data set [6] was determined as 0.86 µM; in [7] it was 0.01 µM (≈ 0.00414 µg/mL). In addition, the IC50 at Cytochrome P450 3A4 [8] amounted to 16 µM.

Regarding `COc1ccc(CCNc2nc3cc(Cl)ccc3c(=O)n2C)nc1`, the permeability result in data set [1] is “Permeable”. Besides, the solubility (thermodynamic) in data set [2] was found to be 1140 µg/mL (≈ 3300 µM); in data set [9] it was 9 µg/mL (≈ 26.1 µM). In addition, in data set [10], the logP worked out at 3.32. The IC50 at 40 h in [3] (HepG2 cells) stood at 27 µM. The IC50 at Cytochrome P450 3A4 [4] is 7.4 µM; on Cytochrome P450 3A4 [8] it was less than 1 µM. The Ratio in [5] worked out at 8. The same molecule returned an MIC80 in [7] of 0.53 µM (≈ 0.183 µg/mL).

`COc1ccc(CCNc2nc3ccccc3c(=O)n2C)cc1`: the IC50 at 40 h in data set [3] (HepG2 cells) was greater than 30 µM. The Ratio in data set [5] is given as greater than 10. Also, the MIC80 in data set [7] amounted to 0.24 µM (≈ 0.0742 µg/mL).

For `COc1ccc(NCc2nc3cc(Cl)ccc3c(=O)n2C)cc1`, the IC50 at 40 h in [3] (HepG2 cells) amounted to 15.7 µM. Further, the Ratio in data set [5] is on record as greater than 10. For the same molecule, the MIC80 in [7] amounted to 19.9 µM (≈ 6.56 µg/mL).

In data set [10], `COCCOc1ccc(CCNc2nc3cc(Cl)ccc3c(=O)n2C)cc1` yielded a logP of 3.86. Further, the IC50 at 40 h in [3] (HepG2 cells) is greater than 30 µM. Moreover, in data set [5], the Ratio was determined as 8. Also, the MIC80 in data set [6] is greater than 10 µM; in data set [7], 0.08 µM (≈ 0.031 µg/mL).

Regarding `Cn1c(NCCc2ccc(-c3ccc(Cl)cc3)nn2)nc2cc(Cl)ccc2c1=O`, in data set [10], the logP was determined as 4.67. For the same molecule, the IC50 at 40 h in [3] (HepG2 cells) was greater than 30 µM. In addition, the Ratio in [5] was found to be 8. Also, the MIC80 in data set [6] worked out at 3.32 µM; in [7], 0.03 µM (≈ 0.0128 µg/mL).

As for `Cn1c(NCCc2ccc(-c3ncccn3)cc2)nc2cc(Cl)ccc2c1=O`, the IC50 at 40 h in [3] (hepg2) was 25.4 µM. Moreover, the MIC80 amounted to 4.06 µM in data set [6] and 0.079 µM (≈ 0.031 µg/mL) in [7].

The record behind these values is ChEMBL document CHEMBL3853353, “Identification and optimization of a new series of anti-tubercular quinazolinones” (Bioorg Med Chem Lett, 2016).
